In patent US11253524B2 (Gilead Sciences, Inc., priority 2018, dated 2022):

Tests used:
[1] = test system: cryopreserved hepatocytes; experiment: Metabolites of [14C]BIC in cryopreserved hepatocytes, rat; format: in vitro ADME; settings: Wister-Han Rat hepatocytes, 4 hours, [14C]BIC 20 μM
From the text: (§1) Metabolic pathways included hydroxylation (3 variants), N-dealkylation, and direct glucuronidation. All human metabolites were also observed in nonclinical species. Using the hepatocyte system where the full range of hepatic metabolic enzymes are represented, it appeared that the metabolism of BIC was extensive in monkey and dog but lower in rat and human.

[2] = test system: cryopreserved hepatocytes; experiment: Metabolites of [14C]BIC in cryopreserved hepatocytes, dog; format: in vitro ADME; settings: Beagle Dog hepatocytes, 4 hours, [14C]BIC 20 μM
From the text: as §1

[3] = Stability of synthetic M15 observed during purification; format: physicochemical
Description: Anomeric bromination of 1 with 33% HBr in acetic acid gave bromide 2 in 70% crystallized yield. Treatment of phenol 3 with bromide 2 in the presence of Ag2CO3 in acetonitrile at 60° C. produced compound 4 in 75% yield after reverse phase chromatography. Deprotection of 4 with triethylamine in methanol/water gave clean conversion to glucuronic acid 5 (M15). The reaction was stopped at 90% conversion since the amount of 3 present in the reaction started to increase. The mixture was purified by reverse phase chromatography with 0.1% TFA in the chromatography solvent. The free acid was isolated after lyophilization, however it contained a significant amount of 3. […] Another batch was purified using the same method as before but the TFA was neutralized with triethylamine before lyophilization. The compound was stable to the conditions but contained a large amount of triethylammonium trifluoroacetate. Not all salt was removed. The material was purified by reverse phase chromatography but without TFA in the solvent. After lyophilization the triethylamine salt of M15 (5) was isolated in high purity and 24% overall yield.

SMILES	Fraction of Radiochromatogram (%) [1]	Fraction of Radiochromatogram (%) [2]	Stability of the free acid ([3]; free acid, neutral or acidic conditions)	Stability of the triethylamine salt ([3]; triethylamine salt)
O=C(NCc1c(F)cc(F)cc1F)c1cn2c(c(O)c1=O)C(=O)N1[C@H]3CC[C@H](C3)O[C@@H]1C2 [BIC, bictegravir, reference compound]	91.5%	78.7%	–	–
O=C(NCc1c(F)cc(F)cc1F)c1cn2c(c(O[C@@H]3O[C@H](C(=O)O)[C@@H](O)[C@H](O)[C@H]3O)c1=O)C(=O)N1[C@H]3CC[C@H](C3)O[C@@H]1C2 [Metabolite M15]	–	–	unstable in either neutral or acidic conditions	appeared to be stable
